Key:
[1] = Hμrel Low Clearance Assay; assay type: in vitro ADME, human; design: % of Control (intrinsic clearance relative to the control compound): tested at 1 µM; conditions: HμRELhumanPool 96-well hepatic co-culture, human hepatic co-culture, 1 μM substrate, 0-72 hr incubation, control = geometric mean of 3 replicates
Method: (§1) The Hμrel Low Clearance Assay was performed to determine the stability of deuterated compounds described herein and calculate changes in clearance relative to the control compound (undeuterated compound) that has the following structure:
(§2) HμRELhumanPool™ 96-well hepatic co-culture plates were media changed and cells were allowed to acclimatize at 37° C. for 20 hr. HμREL® incubation media (serum free) and test compound diluted from a 1000×DMSO stock (final substrate concentration 1 μM; final DMSO concentration 0.1%) were added to the HμREL© 96-well co-culture system at a final cell number of 30,000 cells per well to initiate the reaction. The final incubation volume was 80 μL per time point and two control compounds were included for reference (ketoprofen and prednisolone). All clearance assessments were performed in singlicate with the exception of the undeuterated control compound, which was tested in duplicate on two separate days for a total of 4 replicates. Each compound was incubated for 0, 2, 6, 24, 48 and 72 hr. The reactions were terminated by transferring 60 μL of incubate to 180 μL acetonitrile containing internal standard at the appropriate time points. The crash plates were centrifuged at 3000 rpm at 4° C. for 20 min to precipitate residual protein. Following protein precipitation, sample supernatants were combined in cassettes of up to 4 compounds and analyzed using generic LCMS/MS conditions.
(§3) LC-MS/MS chromatograms were analyzed by peak area ratio (test article peak area/internal standard peak area) and natural log transformed, and plotted against time. The slope of the line was determined to calculate elimination rate constant. Subsequently, half-life (t1/2) and intrinsic clearance (CLint) were calculated using the following equations: […]
(§4) Average clearance of the control compound was determined by taking the geometric mean of 3 of the four replicates. The fourth replicate was excluded from the average determination as an outlier.

[2] = test system: HμRELhumanPool 96-well hepatic co-culture; experiment: Hμrel Low Clearance Assay; assay type: in vitro ADME, human; design: % of Control (intrinsic clearance relative to the control compound): tested at 1 µM; conditions: for Half-Life: human hepatic co-culture, 1 μM substrate, 0-72 hr incubation; for % of Control (intrinsic clearance relative to the control compound): observed CLint divided by average CLint of undeuterated control compound
Method: as §1, §2, §3, §4

[3] = molecular target: T1, Recombinant CYP3A4 Supersomes (Homo sapiens, UniProt P08684); experiment: Recombinant CYP3A4 Clearance Assay; assay type: in vitro ADME; conditions: for % of Control (intrinsic clearance relative to the control compound): observed CLint divided by average CLint of undeuterated control compound; for Half-Life / CLint: recombinant CYP3A4 50 pmol/mL, 1 μM substrate, NADPH; for Half-Life: 0-120 minutes; for CLint: control = geometric mean of 3 replicates
T1 construct: purchased
Method: The CYP3A4 Clearance Assay was performed to determine the stability of deuterated compounds described herein and calculate changes in clearance relative to the control compound (undeuterated compound) that has the following structure:
Recombinant CYP3A4 Supersomes were prepared in 100 mM potassium phosphate buffer (50 pmol/mL final recombinase) and 80 μL aliquots were delivered per well to 96-well reaction plates containing 10 μL/well stock working solution containing substrate at 10× final concentration in 0.1:9.9:90 DMSO:ACN:100 mM phosphate buffer. Final substrate concentration during incubation was 1 μM. Reaction mixtures were pre-incubated at 37° C. for 10 minutes, prior to addition of 10 μL/well of NADPH regenerating system to initiate the reaction (β-Nicotinamide adenine dinucleotide phosphate) or 100 mM phosphate as a buffer control.
Clearance assessments were performed for test compounds in singlicate except for the control compound, which was tested in triplicate. Incubations were maintained at 37° C. for 0, 5, 15, 30, 45, 60, 90, and 120 minutes (or 0 and 120 minutes for buffer control). The reactions were terminated with 3× volume of cold (4° C.) acetonitrile (ACN) containing 200 ng/mL tolbutamide and 200 ng/mL labetalol as internal standards (IS). The crash plates were centrifuged at 4000 rpm at 4° C. for 20 min to precipitate residual protein. Following protein precipitation, sample supernatants were harvested and 3× volume of HPLC grade water was added to each sample for chromatography purposes. Plates were sealed and shaken for 10 minutes prior to LC-MS/MS analysis using generic LCMS/MS conditions.
as §3
Average intrinsic clearance of the control compound was determined by taking the geometric mean of 3 replicates.

T1 sequence (P08684 whole entry): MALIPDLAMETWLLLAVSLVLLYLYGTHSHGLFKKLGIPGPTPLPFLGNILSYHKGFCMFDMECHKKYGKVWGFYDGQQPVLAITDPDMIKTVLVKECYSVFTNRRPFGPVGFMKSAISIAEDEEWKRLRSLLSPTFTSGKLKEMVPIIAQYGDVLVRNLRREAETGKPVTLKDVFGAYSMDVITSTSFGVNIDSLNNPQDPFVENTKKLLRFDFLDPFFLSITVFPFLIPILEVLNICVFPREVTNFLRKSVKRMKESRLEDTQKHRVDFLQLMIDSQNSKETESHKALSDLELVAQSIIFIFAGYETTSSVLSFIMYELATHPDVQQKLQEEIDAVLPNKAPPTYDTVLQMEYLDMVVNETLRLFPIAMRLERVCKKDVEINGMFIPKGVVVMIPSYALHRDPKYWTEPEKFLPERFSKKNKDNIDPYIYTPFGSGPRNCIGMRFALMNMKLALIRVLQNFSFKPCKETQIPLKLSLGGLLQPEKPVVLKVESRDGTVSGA

SMILES | hepatocyte CLint at 1 μM ([1]; human) [µL/min/1e6 cells] | Half-Life [2] [h] | % of Control (intrinsic clearance relative to the control compound) [2] [%] | % of Control (intrinsic clearance relative to the control compound) [3] [%] | Half-Life [3] [h] | CLint [3] [µL/min/pmol] | hepatocyte CLint at 1 μM [1] [µL/min/1e6 cells]
[2H]C([2H])(C(=O)NC(C([2H])([2H])[2H])(C([2H])([2H])[2H])C([2H])([2H])[2H])N1CCC(CNC(=O)c2cc(F)cc(Cl)c2)CC1 [Compound 15, 3-chloro-N-[[1-[1,1-dideuterio-2-oxo-2-[[2,2,2-trideuterio-1,1-bis(trideuteriomethyl)ethyl]amino]ethyl]-4-piperidyl]methyl]-5-fluoro-benzamide] | 1.35 | 22.67 | 95.4 | 82.9 | 0.158 | 1.46 | 
[2H]C1([2H])CC(CNC(=O)c2cc(F)cc(Cl)c2)CC([2H])([2H])N1CC(=O)NC(C([2H])([2H])[2H])(C([2H])([2H])[2H])C([2H])([2H])[2H] [Compound 16, 3-chloro-5-fluoro-N-[[2,2,6,6-tetradeuterio-1-[2-oxo-2-[[2,2,2-trideuterio-1,1-bis(trideuteriomethyl)ethyl]amino]ethyl]-4-piperidyl]methyl]benzamide] |  | 28.33 | 76.3 | 61.4 | 0.213 | 1.08 | 1.08
[2H]C([2H])(C(=O)NC(C)(C([2H])([2H])[2H])C([2H])([2H])[2H])N1CCC(CNC(=O)c2cc(F)cc(Cl)c2)CC1 [Compound 17, 3-chloro-N-[[1-[1,1-dideuterio-2-oxo-2-[[2,2,2-trideuterio-1-methyl-1-(trideuteriomethyl)ethyl]amino]ethyl]-4-piperidyl]methyl]-5-fluoro-benzamide] | 1.18 | 26.17 | 83.4 | 72.2 | 0.182 | 1.27 | 
[2H]C1([2H])CC(CNC(=O)c2cc(F)cc(Cl)c2)CC([2H])([2H])N1CC(=O)NC(C)(C([2H])([2H])[2H])C([2H])([2H])[2H] [Compound 19, 3-chloro-5-fluoro-N-[[2,2,6,6-tetradeuterio-1-[2-oxo-2-[[2,2,2-trideuterio-1-methyl-1-(trideuteriomethyl)ethyl]amino]ethyl]-4-piperidyl]methyl]benzamide] | 0.718 | 43 | 51.5 | 62.2 | 0.212 | 1.09 | 
[2H]C([2H])([2H])C(C)(NC(=O)CN1C([2H])([2H])C([2H])([2H])C([2H])(CNC(=O)c2cc(F)cc(Cl)c2)C([2H])([2H])C1([2H])[2H])C([2H])([2H])[2H] [Compound 20, 3-chloro-5-fluoro-N-[[2,2,3,3,4,5,5,6,6-nonadeuterio-1-[2-oxo-2-[[2,2,2-trideuterio-1-methyl-1-(trideuteriomethyl)ethyl]amino]ethyl]-4-piperidyl]methyl]benzamide] | 0.803 | 38.33 | 56.7 | 61.5 | 0.213 | 1.08 | 
[2H]C([2H])(C(=O)NC(C)(C)C([2H])([2H])[2H])N1CCC(CNC(=O)c2cc(F)cc(Cl)c2)CC1 [Compound 21, 3-chloro-N-[[1-[1,1-dideuterio-2-oxo-2-[(2,2,2-trideuterio-1,1-dimethyl-ethyl)amino]ethyl]-4-piperidyl]methyl]-5-fluoro-benzamide] | 1.46 | 21.17 | 103 | 94.4 | 0.138 | 1.66 | 
[2H]C1([2H])CC(CNC(=O)c2cc(F)cc(Cl)c2)CC([2H])([2H])N1CC(=O)NC(C)(C)C([2H])([2H])[2H] [Compound 22, 3-chloro-5-fluoro-N-[[2,2,6,6-tetradeuterio-1-[2-oxo-2-[(2,2,2-trideuterio-1,1-dimethyl-ethyl)amino]ethyl]-4-piperidyl]methyl]benzamide] | 0.872 | 35.33 | 62.6 | 87.5 | 0.15 | 1.54 | 
[2H]C1([2H])CN(CC(=O)NC(C)(C([2H])([2H])[2H])C([2H])([2H])[2H])CC([2H])([2H])C1CNC(=O)c1cc(F)cc(Cl)c1 [Compound 23, 3-chloro-5-fluoro-N-[[3,3,5,5-tetradeuterio-1-[2-oxo-2-[[2,2,2-trideuterio-1-methyl-1-(trideuteriomethyl)ethyl]amino]ethyl]-4-piperidyl]methyl]benzamide] | 0.908 | 34 | 65.2 | 86.2 | 0.152 | 1.52 | 
CC(C)(C)NC(=O)CN1CCC(CNC(=O)c2cc(F)cc(Cl)c2)CC1 [Control, reference compound] | 1.42 | 22.17 | 100 | 100 | 0.132 | 1.76 | 

Reference: patent US20240025852A1, “T-TYPE CALCIUM CHANNEL MODULATORS AND METHODS OF USE THEREOF” (PRAXIS PRECISION MEDICINES, INC., priority 2020, published 2024)
